Source: the NIST ThermoML archive (doi:10.1016/j.jct.2015.09.030)
± gives the expanded uncertainty stated by the source.

Experiment: xn = mol fraction of the nth substance listed
Details: 100 kPa, Liquid; for mass density: Vibrating tube method; for viscosity: Falling or rolling sphere viscometry

Structure (SMILES): CCCCCCCCCCCCCC[P+](CCCCCC)(CCCCCC)CCCCCC.[Cl-] [trihexyl(tetradecyl)phosphonium chloride] + CO
- mass density (290.15 K, x1 = 0.0156): 815.9 ± 6 kg/m3
- mass density (290.15 K, x1 = 0.0351): 832.7 ± 6 kg/m3
- mass density (290.15 K, x1 = 0.056): 845.2 ± 6 kg/m3
- mass density (290.15 K, x1 = 0.0811): 856.7 ± 6 kg/m3
- mass density (290.15 K, x1 = 0.1271): 869.2 ± 6 kg/m3
- mass density (290.15 K, x1 = 0.2092): 880.2 ± 6 kg/m3
- mass density (290.15 K, x1 = 0.3681): 889.1 ± 6 kg/m3
- mass density (290.15 K, x1 = 0.4851): 891.6 ± 6 kg/m3
- mass density (290.15 K, x1 = 0.6453): 894.2 ± 6 kg/m3
- mass density (290.15 K, x1 = 0.7844): 895.8 ± 6.1 kg/m3
- mass density (290.15 K, x1 = 0.8997): 896.8 ± 6.1 kg/m3
- mass density (290.15 K, x1 = 1): 897.5 ± 6.2 kg/m3
- mass density (293.15 K, x1 = 0.0156): 813.3 ± 6 kg/m3
- mass density (293.15 K, x1 = 0.0351): 830.4 ± 6 kg/m3
- mass density (293.15 K, x1 = 0.056): 842.9 ± 6 kg/m3
- mass density (293.15 K, x1 = 0.0811): 854.5 ± 6 kg/m3
- mass density (293.15 K, x1 = 0.1271): 867.2 ± 6 kg/m3
- mass density (293.15 K, x1 = 0.2092): 878.2 ± 6 kg/m3
- mass density (293.15 K, x1 = 0.3681): 887.2 ± 6 kg/m3
- mass density (293.15 K, x1 = 0.4851): 889.9 ± 6 kg/m3
- mass density (293.15 K, x1 = 0.6453): 892.5 ± 6 kg/m3
- mass density (293.15 K, x1 = 0.7844): 894 ± 6.1 kg/m3
- mass density (293.15 K, x1 = 0.8997): 895.1 ± 6.1 kg/m3
- mass density (293.15 K, x1 = 1): 895.8 ± 6.2 kg/m3
- viscosity (295.15 K, x1 = 0.0156): 1.033 ± 0.1 mPa·s
- viscosity (295.15 K, x1 = 0.0351): 1.798 ± 0.18 mPa·s
- viscosity (295.15 K, x1 = 0.056): 3.34 ± 0.34 mPa·s
- viscosity (295.15 K, x1 = 0.0811): 6.279 ± 0.63 mPa·s
- viscosity (295.15 K, x1 = 0.1271): 15.65 ± 1.6 mPa·s
- viscosity (295.15 K, x1 = 0.2092): 45.36 ± 4.6 mPa·s
- viscosity (295.15 K, x1 = 0.3681): 173 ± 19 mPa·s
- viscosity (295.15 K, x1 = 0.4851): 401.5 ± 48 mPa·s
- viscosity (295.15 K, x1 = 0.6453): 820.4 ± 110 mPa·s
- viscosity (295.15 K, x1 = 0.7844): 1285 ± 180 mPa·s
- viscosity (295.15 K, x1 = 0.8997): 1687 ± 250 mPa·s
- viscosity (295.15 K, x1 = 1): 1996 ± 300 mPa·s
- mass density (295.15 K, x1 = 0.0156): 811.2 ± 6 kg/m3
- mass density (295.15 K, x1 = 0.0351): 828.8 ± 6 kg/m3
- mass density (295.15 K, x1 = 0.056): 841.4 ± 6 kg/m3
- mass density (295.15 K, x1 = 0.0811): 853.1 ± 6 kg/m3
- mass density (295.15 K, x1 = 0.1271): 865.8 ± 6 kg/m3
- mass density (295.15 K, x1 = 0.2092): 876.9 ± 6 kg/m3
- mass density (295.15 K, x1 = 0.3681): 885.9 ± 6 kg/m3
- mass density (295.15 K, x1 = 0.4851): 888.9 ± 6 kg/m3
- mass density (295.15 K, x1 = 0.6453): 891.4 ± 6 kg/m3
- mass density (295.15 K, x1 = 0.7844): 892.9 ± 6.1 kg/m3
- mass density (295.15 K, x1 = 0.8997): 894 ± 6.1 kg/m3
- mass density (295.15 K, x1 = 1): 894.6 ± 6.2 kg/m3
- viscosity (298.15 K, x1 = 0.0156): 0.988 ± 0.099 mPa·s
- viscosity (298.15 K, x1 = 0.0351): 1.695 ± 0.17 mPa·s
- viscosity (298.15 K, x1 = 0.056): 3.092 ± 0.31 mPa·s
- viscosity (298.15 K, x1 = 0.0811): 5.794 ± 0.58 mPa·s
- viscosity (298.15 K, x1 = 0.1271): 14.29 ± 1.4 mPa·s
- viscosity (298.15 K, x1 = 0.2092): 40.2 ± 4.1 mPa·s
- viscosity (298.15 K, x1 = 0.3681): 149.2 ± 16 mPa·s
- viscosity (298.15 K, x1 = 0.4851): 339.2 ± 40 mPa·s
- viscosity (298.15 K, x1 = 0.6453): 670 ± 86 mPa·s
- viscosity (298.15 K, x1 = 0.7844): 1046 ± 140 mPa·s
- viscosity (298.15 K, x1 = 0.8997): 1392 ± 200 mPa·s
- viscosity (298.15 K, x1 = 1): 1683 ± 250 mPa·s
- mass density (298.15 K, x1 = 0.0156): 809.1 ± 6 kg/m3
- mass density (298.15 K, x1 = 0.0351): 826.4 ± 6 kg/m3
- mass density (298.15 K, x1 = 0.056): 839.2 ± 6 kg/m3
- mass density (298.15 K, x1 = 0.0811): 851 ± 6 kg/m3
- mass density (298.15 K, x1 = 0.1271): 863.8 ± 6 kg/m3
- mass density (298.15 K, x1 = 0.2092): 875 ± 6 kg/m3
- mass density (298.15 K, x1 = 0.3681): 884 ± 6 kg/m3
- mass density (298.15 K, x1 = 0.4851): 887.1 ± 6 kg/m3
- mass density (298.15 K, x1 = 0.6453): 889.7 ± 6 kg/m3
- mass density (298.15 K, x1 = 0.7844): 891.2 ± 6.1 kg/m3
- mass density (298.15 K, x1 = 0.8997): 892.1 ± 6.1 kg/m3
- mass density (298.15 K, x1 = 1): 892.8 ± 6.2 kg/m3
- viscosity (303.15 K, x1 = 0.0156): 0.911 ± 0.091 mPa·s
- viscosity (303.15 K, x1 = 0.0351): 1.542 ± 0.15 mPa·s
- viscosity (303.15 K, x1 = 0.056): 2.704 ± 0.27 mPa·s
- viscosity (303.15 K, x1 = 0.0811): 5.089 ± 0.51 mPa·s
- viscosity (303.15 K, x1 = 0.1271): 12.28 ± 1.2 mPa·s
- viscosity (303.15 K, x1 = 0.2092): 33.24 ± 3.4 mPa·s
- viscosity (303.15 K, x1 = 0.3681): 116.2 ± 12 mPa·s
- viscosity (303.15 K, x1 = 0.4851): 255.5 ± 29 mPa·s
- viscosity (303.15 K, x1 = 0.6453): 486.4 ± 60 mPa·s
- viscosity (303.15 K, x1 = 0.7844): 744.5 ± 97 mPa·s
- viscosity (303.15 K, x1 = 0.8997): 978.6 ± 130 mPa·s
- viscosity (303.15 K, x1 = 1): 1174 ± 160 mPa·s
- mass density (303.15 K, x1 = 0.0156): 804.8 ± 6 kg/m3
- mass density (303.15 K, x1 = 0.0351): 822.4 ± 6 kg/m3
- mass density (303.15 K, x1 = 0.056): 835.4 ± 6 kg/m3
- mass density (303.15 K, x1 = 0.0811): 847.4 ± 6 kg/m3
- mass density (303.15 K, x1 = 0.1271): 860.4 ± 6 kg/m3
- mass density (303.15 K, x1 = 0.2092): 871.8 ± 6 kg/m3
- mass density (303.15 K, x1 = 0.3681): 880.9 ± 6 kg/m3
- mass density (303.15 K, x1 = 0.4851): 884 ± 6 kg/m3
- mass density (303.15 K, x1 = 0.6453): 886.7 ± 6 kg/m3
- mass density (303.15 K, x1 = 0.7844): 888.2 ± 6.1 kg/m3
- mass density (303.15 K, x1 = 0.8997): 889.1 ± 6.1 kg/m3
- mass density (303.15 K, x1 = 1): 889.8 ± 6.2 kg/m3
- viscosity (308.15 K, x1 = 0.0156): 0.842 ± 0.084 mPa·s
- viscosity (308.15 K, x1 = 0.0351): 1.407 ± 0.14 mPa·s
- viscosity (308.15 K, x1 = 0.056): 2.287 ± 0.23 mPa·s
- viscosity (308.15 K, x1 = 0.0811): 4.496 ± 0.45 mPa·s
- viscosity (308.15 K, x1 = 0.1271): 10.64 ± 1.1 mPa·s
- viscosity (308.15 K, x1 = 0.2092): 27.72 ± 2.8 mPa·s
- viscosity (308.15 K, x1 = 0.3681): 90.86 ± 9.3 mPa·s
- viscosity (308.15 K, x1 = 0.4851): 197.3 ± 22 mPa·s
- viscosity (308.15 K, x1 = 0.6453): 363.3 ± 43 mPa·s
- viscosity (308.15 K, x1 = 0.7844): 543.1 ± 68 mPa·s
- viscosity (308.15 K, x1 = 0.8997): 700 ± 91 mPa·s
- viscosity (308.15 K, x1 = 1): 824.1 ± 110 mPa·s
- mass density (308.15 K, x1 = 0.0156): 800.5 ± 6 kg/m3
- mass density (308.15 K, x1 = 0.0351): 818.5 ± 6 kg/m3
- mass density (308.15 K, x1 = 0.056): 831.6 ± 6 kg/m3
- mass density (308.15 K, x1 = 0.0811): 843.9 ± 6 kg/m3
- mass density (308.15 K, x1 = 0.1271): 857.1 ± 6 kg/m3
- mass density (308.15 K, x1 = 0.2092): 868.5 ± 6 kg/m3
- mass density (308.15 K, x1 = 0.3681): 877.8 ± 6 kg/m3
- mass density (308.15 K, x1 = 0.4851): 881 ± 6 kg/m3
- mass density (308.15 K, x1 = 0.6453): 883.7 ± 6 kg/m3
- mass density (308.15 K, x1 = 0.7844): 885.3 ± 6.1 kg/m3
- mass density (308.15 K, x1 = 0.8997): 886.2 ± 6.1 kg/m3
- mass density (308.15 K, x1 = 1): 886.9 ± 6.2 kg/m3
- viscosity (313.15 K, x1 = 0.0156): 0.79 ± 0.079 mPa·s
- viscosity (313.15 K, x1 = 0.0351): 1.289 ± 0.13 mPa·s
- viscosity (313.15 K, x1 = 0.056): 1.901 ± 0.19 mPa·s
- viscosity (313.15 K, x1 = 0.0811): 4.071 ± 0.41 mPa·s
- viscosity (313.15 K, x1 = 0.1271): 9.437 ± 0.95 mPa·s
- viscosity (313.15 K, x1 = 0.2092): 23.32 ± 2.4 mPa·s
- viscosity (313.15 K, x1 = 0.3681): 81.39 ± 8.3 mPa·s
- viscosity (313.15 K, x1 = 0.4851): 151.5 ± 16 mPa·s
- viscosity (313.15 K, x1 = 0.6453): 271.4 ± 31 mPa·s
- viscosity (313.15 K, x1 = 0.7844): 396.8 ± 47 mPa·s
- viscosity (313.15 K, x1 = 0.8997): 505.7 ± 62 mPa·s
- viscosity (313.15 K, x1 = 1): 593.7 ± 75 mPa·s
- mass density (313.15 K, x1 = 0.0156): 796.3 ± 6 kg/m3
- mass density (313.15 K, x1 = 0.0351): 814.5 ± 6 kg/m3
- mass density (313.15 K, x1 = 0.056): 827.9 ± 6 kg/m3
- mass density (313.15 K, x1 = 0.2092): 865.3 ± 6 kg/m3
- mass density (313.15 K, x1 = 0.3681): 874.5 ± 6 kg/m3
- mass density (313.15 K, x1 = 0.4851): 878.6 ± 6 kg/m3
- mass density (313.15 K, x1 = 0.6453): 880.8 ± 6 kg/m3
- mass density (313.15 K, x1 = 0.7844): 882.6 ± 6.1 kg/m3
- mass density (313.15 K, x1 = 0.8997): 883.2 ± 6.1 kg/m3
- mass density (313.15 K, x1 = 1): 883.9 ± 6.2 kg/m3
